Measurements published in ChEMBL document CHEMBL3856213, “neo-Clerodane diterpenoids from Scutellaria barbata mediated inhibition of P-glycoprotein in MCF-7/ADR cells” (Eur J Med Chem, 2016).
Calls of active or inactive are those of the source. No cut-off for these calls is given here.

How the values were obtained:
[1] = test system: NCI/ADR-RES; assay: Inhibition of P-gp in human MCF7/ADR cells assessed as potentiation of adriamycin-induced cytotoxic activity at 20 uM after 48 hrs by MTT assay relative to control; format: cell-based
[2] = Cytotoxicity against human MCF7 cells assessed as inhibition of cell survival rate at 50 uM after 48 hrs by MTT assay relative to control; format: functional; settings: MCF7, 48 h
[3] = test system: NCI/ADR-RES; assay: Reversal index, ratio of IC50 for human MCF7/ADR cells to IC50 for human MCF7 cells; format: functional
[4] = Cytotoxicity against human MCF7/ADR cells assessed as inhibition of cell survival rate after 48 hrs by MTT assay; format: functional, cell-based; settings: NCI/ADR-RES
[5] = Cytotoxicity against human MCF7 cells assessed as inhibition of cell survival rate after 48 hrs by MTT assay; format: functional, cell-based; settings: MCF7, 48 h
[6] = test system: NCI/ADR-RES; assay: Inhibition of P-gp in human MCF7/ADR cells assessed as increase in intracellular adriamycin accumulation at 10 uM after 3 hrs by flow cytometry relative to control; format: cell-based
[7] = test system: NCI/ADR-RES; assay: Inhibition of P-gp in human MCF7/ADR cells assessed as increase in intracellular adriamycin accumulation at 20 uM after 3 hrs by flow cytometry; format: cell-based
[8] = test system: NCI/ADR-RES; assay: Inhibition of P-gp in human MCF7/ADR cells assessed as increase in intracellular rhodamine123 accumulation at 10 to 20 uM incubated for 4 hrs in dark condition by flow cytometry; format: cell-based
[9] = test system: NCI/ADR-RES; assay: Inhibition of P-gp in human MCF7/ADR cells assessed as potentiation of adriamycin-induced cell death by measuring dead cell levels at 10 uM after 48 hrs by 7-AAD staining-based flow cytometry; set-up: scale not given: the % may be the effect or the level left

Row | SMILES | fold change (FC) [1] | inhibition at 50 µM [2] | inhibition [7] | inhibition [8] | further results
1 | CC(=O)OC[C@@]12[C@@H](OC(C)=O)C[C@@H](C)[C@](C)(C3O[C@@H]4OC[C@@H](OC(=O)c5cccnc5)[C@@H]4[C@@H]3O)[C@H]1CCC[C@]21CO1 (stereo partly drawn) | 2.8 | 25.2% | – | – | –
2 | CC1=CC[C@@H](O)[C@H]2[C@@]1(C)[C@@H](OC(=O)c1cccnc1)[C@H](O)[C@]1(C)O[C@]3(COC(=O)C3)C[C@H](OC(=O)c3cccnc3)[C@]21C (relative stereo) | 7.5 | 14.6% | – | – | –
3 | CC(=O)O[C@@H](CC1=C(O)C(=O)OC1)[C@]1(C)[C@H]2CCC=C(C)[C@]2(C)[C@@H](OC(=O)c2cccnc2)[C@H](OC(=O)c2cccnc2)[C@]1(C)O | 3.3 | 17.1% | – | – | –
4 | COc1cccc2c1C(=O)c1c(O)c3c(c(O)c1C2=O)C[C@@](O)(C(=O)CO)C[C@@H]3O[C@H]1C[C@H](N)[C@H](O)[C@H](C)O1.Cl [DOXORUBICIN HYDROCHLORIDE] | – | – | – | – | Ratio IC50 [3]: 58.8; IC50 [4]: 58.8 µM; IC50 [5]: 1 µM
5 | CC(=O)O[C@H]1[C@H](OC(=O)c2cccnc2)[C@@]2(C)C(C)=CC[C@@H](OC(=O)c3cccnc3)[C@@H]2[C@@]2(C)CC[C@]3(COC(=O)C3)O[C@@]12C | 16.7 | 28.5% | Active | Active | inhibition [6]: Active
6 | CC1=CC[C@@H](OC(=O)c2cccnc2)[C@H]2[C@@]1(C)[C@@H](OC(=O)c1cccnc1)[C@H](OC(=O)c1cccnc1)[C@]1(C)O[C@]3(CC[C@]21C)COC(=O)C3 | 29.6 | 40.6% | Active | Active | fold change (FC) [6]: 2.27
7 | CC1=CC[C@@H](OC(=O)c2cccnc2)[C@H]2[C@@]1(C)[C@H]1O[C@@](O)(C(C)C)C(=O)O[C@@H]1[C@]1(C)O[C@@]3(CC[C@]21C)COC(=O)C3 | 12.2 | 20.6% | Active | Active | inhibition [6]: Active
8 | CC(=O)O[C@@H](CC1=C(O)C(=O)OC1)[C@]1(C)[C@H]2CCC=C(C)[C@]2(C)[C@@H](OC(=O)c2cccnc2)[C@H](OC(=O)c2ccccc2)[C@]1(C)O | 2 | 23.1% | – | – | –
9 | CC1=CCC[C@H]2[C@@]1(C)[C@@H](OC(=O)c1cccnc1)[C@H](OC(=O)c1cccnc1)[C@](C)(O)[C@]2(C)/C=C/C1=CC(=O)OC1 | 4.6 | 31.4% | – | – | –
10 | CC(=O)OC(C(=O)O[C@H]1[C@H](OC(=O)c2cccnc2)[C@@]2(C)C(C)=CCC[C@@H]2[C@@](C)(/C=C/C2=CC(=O)OC2)[C@@]1(C)O)C(C)C (stereo partly drawn) | 11.4 | 23.8% | – | – | –
11 | COc1ccc(CCN(C)CCCC(C#N)(c2ccc(OC)c(OC)c2)C(C)C)cc1OC (stereo not drawn) | 20.4 | – | – | – | fold change (FC) [6]: 2.1; Activity [9]: 46.7%
12 | CC1=CC[C@@H](O)[C@H]2[C@@]1(C)[C@@H](OC(=O)c1cccnc1)[C@H](O)[C@]1(C)O[C@]3(COC(=O)C3O)C[C@H](OC(=O)c3cccnc3)[C@]21C (relative stereo) | 7.9 | 19.5% | – | – | –
13 | CC1=CCC[C@H]2[C@@]1(C)[C@@H](OC(=O)c1cccnc1)[C@H](OC(=O)c1ccccc1)[C@](C)(O)[C@]2(C)/C=C/C1=CC(=O)OC1 | 10.1 | 23.8% | – | – | –
14 | CC1=CCC[C@H]2[C@@]1(C)[C@@H](OC(=O)c1cccnc1)[C@H](OC(=O)c1ccccc1)[C@](C)(O)[C@]2(C)/C=C\C1=CC(=O)OC1 | 9 | 17.4% | – | – | –
15 | CC1=CC[C@@H](OC(=O)c2cccnc2)[C@H]2[C@@]1(C)[C@@H](OC(=O)c1cccnc1)[C@H](O)[C@]1(C)O[C@@]3(CC[C@]21C)COC(=O)C3 | 11.4 | 15.1% | Active | Active | inhibition [6]: Active
16 | CC(=O)OC(C(=O)O[C@H]1[C@H](OC(=O)c2cccnc2)[C@@]2(C)C(C)=CCC[C@@H]2[C@@](C)(CCC2=C(O)C(=O)OC2)[C@@]1(C)O)C(C)C (stereo partly drawn) | 3 | 37.6% | – | – | –
17 | CC1=CCC[C@H]2[C@@]1(C)[C@@H](OC(=O)c1cccnc1)[C@H](OC(=O)c1cccnc1)[C@](C)(O)[C@]2(C)/C=C\C1=CC(=O)OC1 | 13.1 | 18.8% | – | – | –
18 | CC(=O)O[C@H]1[C@H](OC(C)=O)[C@]2(C)O[C@@]3(CC[C@]2(C)[C@H]2[C@H](OC(=O)c4cccnc4)CC=C(C)[C@]12C)COC(=O)C3 (relative stereo) | 11.5 | 16.6% | Active | Active | inhibition [6]: Active
19 | CC(=O)O[C@H]1[C@H](OC(=O)c2cccnc2)[C@@]2(C)C(C)=CC[C@@H](O)[C@@H]2[C@@]2(C)[C@@H](OC(=O)c3cccnc3)C[C@@]3(COC(=O)C3)O[C@@]12C | 29.1 | 14.3% | Active | Active | inhibition [6]: Active
20 | CC1=CCC[C@H]2[C@@]1(C)[C@@H](OC(=O)c1cccnc1)[C@H](OC(=O)C(C)C)[C@](C)(O)[C@]2(C)/C=C/C1=CC(=O)OC1 | 6.3 | 19.1% | – | – | –
21 | CC(=O)O[C@@H](CC1=C(O)C(=O)OC1)[C@]1(C)[C@H]2CCC=C(C)[C@]2(C)[C@@H](OC(=O)c2cccnc2)[C@H](O)[C@]1(C)O | 1.5 | 18.5% | – | – | –
22 | CC[C@]1(O)C[C@H]2CN(CCc3c([nH]c4ccccc34)[C@@](C(=O)OC)(c3cc4c(cc3OC)N(C=O)[C@H]3[C@@](O)(C(=O)OC)[C@H](OC(C)=O)[C@]5(CC)C=CCN6CC[C@]43[C@@H]65)C2)C1 [VINCRISTINE] | – | – | – | – | Ratio IC50 [3]: 48.3; IC50 [4]: 62.8 µM; IC50 [5]: 1.3 µM
23 | CC1=CC[C@@H](OC(=O)c2ccccc2)[C@H]2[C@@]1(C)[C@@H](OC(=O)c1cccnc1)[C@H](O)[C@]1(C)O[C@]3(CC[C@]21C)COC(=O)C3 (relative stereo) | 17.8 | 20.1% | Active | Active | inhibition [6]: Active
24 | CC(=O)O[C@@]12CO[C@@H]1C[C@H](O)[C@@]1(C)C(=O)[C@H](O)C3=C(C)[C@@H](OC(=O)[C@H](O)[C@@H](NC(=O)OC(C)(C)C)c4ccccc4)C[C@@](O)([C@@H](OC(=O)c4ccccc4)[C@H]21)C3(C)C [DOCETAXEL ANHYDROUS] | – | – | – | – | Ratio IC50 [3]: 26.5; IC50 [4]: 21.2 µM; IC50 [5]: 0.8 µM
25 | CC(=O)O[C@H]1[C@H](OC(C)=O)[C@]2(C)O[C@]3(CC[C@]2(C)[C@H]2[C@H](OC(=O)c4cccnc4)CC=C(C)[C@]12C)COC(=O)C3 | 13 | 19.5% | – | Active | –
26 | CC1=CCC[C@H]2[C@@]1(C)[C@@H](OC(=O)c1cccnc1)[C@H](O)[C@](C)(O)[C@]2(C)CCC1=C(O)C(=O)OC1 | 11.5 | 28.5% | – | – | –
27 | CC(=O)O[C@H]1[C@H](OC(=O)c2cccnc2)[C@@]2(C)C(C)=CC[C@@H](OC(=O)c3cccnc3)[C@@H]2[C@@]2(C)CC[C@@]3(COC(=O)C3)O[C@@]12C | 37.7 | 35.7% | Active | Active | fold change (FC) [6]: 2.36
28 | CC1=CC[C@@H](OC(=O)c2ccccc2)[C@H]2[C@@]1(C)[C@@H](OC(=O)c1cccnc1)[C@H](O)[C@]1(C)O[C@@]3(CC[C@]21C)COC(=O)C3 | 33.4 | 41.3% | Active | Active | inhibition [6]: Active
